Reference: patent US20180296530A1, “METHOD FOR TREATING ATOPIC DERMATITIS” (priority 2015, published 2018)

Key:
[1] = test system: DNCB-induced AD mouse model; assay: Example 5: histological examination of skin (H&E, toluidine blue, anti-CD3); format: in vivo, Balb/c mice; details: for Cumulative histological scores: positive control 14.8 ± 2.4; for Hyperplasia, epidermis and follicular epithelium, slight to moderate/severe: incidence / Hyperplasia, sebaceous gland and hair follicle, dermis and subcutis, slight to moderate: incidence / Inflammation, neutrophil, lymphocyte and mast cell, epidermis, dermis and subcutis, minimal to severe/high: incidence / Infundibular hyperkeratosis, hair follicle, dermis, minimal to slight: incidence / Necrosis, epidermis, slight: incidence / Pustule, epidermis, slight: incidence / Serocellular crust/parakeratosis, epidermis, slight: incidence / Vacuolization, epidermis, minimal to slight: incidence: skin, Day 20, 5 mice
Experimental: (§1) The protocol for establishing an AD mouse model in this Example was modified from those described previously. Briefly, referring to FIG. 4, DNCB-induced AD mouse model was prepared by the repeated applications of 20 μL of 1% DNCB in acetone/olive oil (4:1) to the outer and inner surfaces of mouse ears and 100 μL of the same solution to the shaved back skin once on days 1, 2, and 3. Mice of Control group were treated with the identical volumes of vehicle.
(§2) The DNCB-sensitized mice were randomly assigned to one of three groups: DNCB (Positive control), DNCB+3% topical melatonin (Treatment: low-dose), DNCB+5% topical melatonin (Treatment: high-dose). Each group (including Control group) consisted of 5 mice. From days 9 to 19, sensitized mice were challenged by applying 0.5% DNCB to the skin surfaces. For the two groups treated with topical melatonin groups, 0.3 mg of topical melatonin ointment (3% or 5% melatonin in Vaseline) was given together with DNCB during the challenge period. For DNCB group, 0.3 mg of Vaseline was given together with DNCB during the challenge period. For Control group, 0.3 mg of Vaseline was given from days 9 to 19. This experiment was ended at Day 20.
At the end of the experiment (Day 20), all the experimental animals were subjected to euthanization by carbon dioxide and the skin samples were collected for subsequent immunological and histological examinations. The skin of each mouse were fixed with 10% neutral-buffered formalin, and embedded in paraffin. Then, 4-μm-thick sections were cut and transferred onto slides. Deparaffinized skin sections were stained with hematoxylin and eosin (H&E) before they were examined at 200× magnification for evaluation of edema and polymorphonuclear leukocytes (PMN) number. To detect mast cell infiltration, deparaffinized skin sections were stained with toluidine blue. Polyclonal rabbit antibody against CD3 was used to stain T cells. The numbers of mast cells and T cells per 10 high power fields (HPF) were counted.
Further, degree of histopathological lesions of skin from each mouse was graded from one to five depending on severity: 1=minimal (<1%); 2=slight (1-25%); 3=moderate (26-50%); 4=moderate/severe (51-75%); and 5=severe/high (76-100%).

IL-17 = assay: Example 5: dorsal skin IL-17 mRNA by RT-PCR; format: in vivo, Balb/c mice
Experimental: as §1
as §2, with “For DNCB group, 0.3 mg of Vaseline was given together with DNCB during the challenge period. For Control group, 0.3 mg of Vaseline was given from days 9 to 19. This experiment was ended at Day 20.” left out
Blood and dorsal skin of each mouse were collected on the last day of the experiment (Day 20) and stored at −80° C. until use. Serum IgE levels were measured using the ImmunoCAP fluorescence enzyme immunoassay (Phadia AB, Sweden) according to the manufacturer's instructions. The dorsal skin mRNA expression of the cytokines IL-4, IL-13, and IL-17 were measured by RT-PCR.

[2] = Treatment (high-dose): DNCB+5% topical melatonin, mean±SD, graded one to five
[3] = Treatment (high-dose): DNCB+5% topical melatonin
[4] = Treatment (low-dose): DNCB+3% topical melatonin, mean±SD, graded one to five
[5] = Treatment (low-dose): DNCB+3% topical melatonin

With `COc1ccc2[nH]cc(CCNC(C)=O)c2c1` [Melatonin, melatonin] as the compound, how does the “pathology scoring vs DNCB group” value ([1]; 3% melatonin, p=0.04) read?
The value was “significant improvement”.

What about the “number of anti-CD3 positive cells per 10 HPF” value ([1]; 3% topical melatonin compared with DNCB group, p=0.03) of the same compound?
Its value is “significantly reduced”.

What about the “pathology scoring vs DNCB group” value ([1]; 5% melatonin, p=0.02) of the same compound?
The value was “significant improvement”.

And the “number of anti-CD3 positive cells per 10 HPF” value ([1]; 5% topical melatonin compared with DNCB group, p=0.0007)?
Its value is “significantly reduced”.

What about the “Hyperplasia, epidermis and follicular epithelium, slight to moderate/severe: lesion score” value [1, 2] of the same compound?
The value was 2.0 ± 0.0.

What about the “Hyperplasia, sebaceous gland and hair follicle, dermis and subcutis, slight to moderate: lesion score” value [1, 2] of the same compound?
The value was 2.4 ± 0.5.

What about the “Inflammation, neutrophil, lymphocyte and mast cell, epidermis, dermis and subcutis, minimal to severe/high: lesion score” value [1, 2] of the same compound?
Its value is 3.8 ± 0.4.

What about the “Necrosis, epidermis, slight: lesion score” value [1, 2] of the same compound?
The value was 0.4 ± 0.9.

What about the “Serocellular crust/parakeratosis, epidermis, slight: lesion score” value [1, 2] of the same compound?
Its value is 2.0 ± 0.0.

What about the “Vacuolization, epidermis, minimal to slight: lesion score” value [1, 2] of the same compound?
Its value is 0.8 ± 0.4.

What about the Cumulative histological scores ([1]; Treatment (high-dose): DNCB+5% topical melatonin, mean±SD) of the same compound?
The Cumulative histological scores was 11.4 ± 1.1.

What about the “Hyperplasia, epidermis and follicular epithelium, slight to moderate/severe: incidence” value [1, 3] of the same compound?
The value was 5/5.

What about the “Hyperplasia, sebaceous gland and hair follicle, dermis and subcutis, slight to moderate: incidence” value [1, 3] of the same compound?
Its value is 5/5.

What about the “Inflammation, neutrophil, lymphocyte and mast cell, epidermis, dermis and subcutis, minimal to severe/high: incidence” value [1, 3] of the same compound?
Its value is 5/5.

What about the “Infundibular hyperkeratosis, hair follicle, dermis, minimal to slight: incidence” value [1, 3] of the same compound?
Its value is 0.

And the “Necrosis, epidermis, slight: incidence” value [1, 3]?
Its value is 1/5.

What about the “Pustule, epidermis, slight: incidence” value [1, 3] of the same compound?
Its value is 0.

And the “Serocellular crust/parakeratosis, epidermis, slight: incidence” value [1, 3]?
Its value is 5/5.

What about the “Vacuolization, epidermis, minimal to slight: incidence” value [1, 3] of the same compound?
The value was 4/5.

And the “Hyperplasia, epidermis and follicular epithelium, slight to moderate/severe: lesion score” value [1, 4]?
Its value is 2.4 ± 0.5.

What about the “Hyperplasia, sebaceous gland and hair follicle, dermis and subcutis, slight to moderate: lesion score” value [1, 4] of the same compound?
Its value is 2.0 ± 0.0.

What about the “Inflammation, neutrophil, lymphocyte and mast cell, epidermis, dermis and subcutis, minimal to severe/high: lesion score” value [1, 4] of the same compound?
The value was 3.8 ± 0.4.

What about the “Infundibular hyperkeratosis, hair follicle, dermis, minimal to slight: lesion score” value [1, 4] of the same compound?
The value was 0.8 ± 0.8.

What about the “Serocellular crust/parakeratosis, epidermis, slight: lesion score” value [1, 4] of the same compound?
Its value is 2.0 ± 0.0.

And the “Vacuolization, epidermis, minimal to slight: lesion score” value [1, 4]?
Its value is 0.6 ± 0.5.

And the Cumulative histological scores ([1]; Treatment (low-dose): DNCB+3% topical melatonin, mean±SD)?
The Cumulative histological scores was 11.6 ± 1.8.

And the “Hyperplasia, epidermis and follicular epithelium, slight to moderate/severe: incidence” value [1, 5]?
The value was 5/5.

What about the “Hyperplasia, sebaceous gland and hair follicle, dermis and subcutis, slight to moderate: incidence” value [1, 5] of the same compound?
Its value is 5/5.

And the “Inflammation, neutrophil, lymphocyte and mast cell, epidermis, dermis and subcutis, minimal to severe/high: incidence” value [1, 5]?
Its value is 5/5.

And the “Infundibular hyperkeratosis, hair follicle, dermis, minimal to slight: incidence” value [1, 5]?
The value was 3/5.

What about the “Necrosis, epidermis, slight: incidence” value [1, 5] of the same compound?
Its value is 0.

And the “Pustule, epidermis, slight: incidence” value [1, 5]?
The value was 0.

What about the “Serocellular crust/parakeratosis, epidermis, slight: incidence” value [1, 5] of the same compound?
The value was 5/5.

What about the “Vacuolization, epidermis, minimal to slight: incidence” value [1, 5] of the same compound?
The value was 3/5.

What about the “mast cell infiltration (toluidine blue)” value ([1]; after melatonin treatment, FIG. 8) of the same compound?
The value was “decreased”.

And the “H&E staining of the skin” value ([1]; both the 3% and 5% melatonin treatment group, FIG. 6)?
Its value is “improved epidermal hyperplasia and less infiltration of lymphocytes”.

What about the “skin mRNA expression of IL-17, dose-response” value (IL-17; 5% melatonin treatment compared with 3% melatonin treatment) of the same compound?
The value was “decreased more”.

What about the “skin mRNA expression of IL-17” value (IL-17; after topical melatonin treatment (3% or 5%), FIG. 11B) of the same compound?
The value was “decreased”.
